Source: ChEMBL document CHEMBL5252619, “Sadopeptins A and B, Sulfoxide- and Piperidone-Containing Cyclic Heptapeptides with Proteasome Inhibitory Activity from a Streptomyces sp” (J Nat Prod, 2023)
Active and inactive are the calls of the source.

Columns and labels:
A549 = test: Cytotoxicity against human A549 cells assessed as reduction in cell viability up to 200 uM measured for 9 hrs by WST-8 assay; format: functional, cell-based
Proteasome [1] = test: Inhibition of human proteasome trypsin-like activity using Boc-LRR-AMC as substrate measured for 30 mins in presence of MG132 by fluorescence based assay; format: subcellular; details: dose 10-50 µM
Proteasome [2] = test: Inhibition of proteasome caspase-like activity in human A549 cells assessed as LC3 lipidation at 25 to 100 uM measured for 12 hrs in presence of MG132; details: dose 25-100 µM
Proteasome [3] = test: Inhibition of human proteasome chymotrypsin-like activity using suc-LLVY-AMC as fluorogenic substrate measured for 30 mins in presence of MG132 by fluorescence based assay; format: subcellular; details: dose 10-50 µM
Proteasome [4] = test: Inhibition of proteasome caspase-like activity in human A549 cells assessed as increase in caspase-3 level at 25 to 100 uM measured for 12 hrs in presence of MG132; format: subcellular; details: dose 25-100 µM
Proteasome [5] = test: Inhibition of proteasome caspase-like activity in human A549 cells assessed as cleaved PARP level at 25 to 100 uM measured for 12 hrs in presence of MG132; details: dose 25-100 µM
Proteasome [6] = test: Inhibition of proteasome caspase-like activity in human A549 cells at 25 uM using ZLLE-AMC as fluorogenic substrate preincubated for 15 mins followed by substrate addition and measured after 6 mins by fluorometer analysis; format: subcellular

CCCC(=O)N[C@@H](CCCNC(N)=O)C(=O)N[C@@H]1C(=O)N[C@@H](CC[S+](C)[O-])C(=O)N[C@H]2CC[C@@H](O)N(C2=O)[C@@H](Cc2ccccc2)C(=O)N(C)[C@@H](Cc2ccc(O)cc2)C(=O)N[C@@H](C(C)C)C(=O)O[C@@H]1C (some centres undefined)
active: Activity (A549) | inhibition (Proteasome [1]) Dose-Dependent Effect | inhibition (Proteasome [2]) | inhibition (Proteasome [3]) Dose-Dependent Effect | inhibition (Proteasome [4]) | inhibition (Proteasome [5]) | inhibition (Proteasome [6])

CC(C)CC(=O)N[C@@H](CCCNC(N)=O)C(=O)N[C@@H]1C(=O)N[C@@H](CC[S+](C)[O-])C(=O)N[C@H]2CC[C@@H](O)N(C2=O)[C@@H](Cc2ccccc2)C(=O)N(C)[C@@H](Cc2ccc(O)cc2)C(=O)N[C@@H](C(C)C)C(=O)O[C@@H]1C (some centres undefined)
active: Activity (A549) | inhibition (Proteasome [1]) Dose-Dependent Effect | inhibition (Proteasome [2]) | inhibition (Proteasome [3]) Dose-Dependent Effect | inhibition (Proteasome [4]) | inhibition (Proteasome [5]) | inhibition (Proteasome [6])
